In US20240270821A1, “GIP/GLP1/GCG TRI-RECEPTOR AGONISTS AND USES THEREOF” (priority 2023, published 2024):
Where two headings read alike, the source gives them in different places. Starred links: 1 amine or outer side, 2 acyl side, 3 side chain; linkers in the order of their positions; H or OH if unused. Non-standard residues stand in square brackets, D forms with d. Groups on a side chain read outwards from the residue. No end group written: not given here. *: point of attachment. C20 diacid = O=C(O)CCCCCCCCCCCCCCCCCCC(=O)*; C18 diacid = O=C(O)CCCCCCCCCCCCCCCCC(=O)*; Phe(4-CN) = N#Cc1ccc(C[C@H](N)C(=O)O)cc1; αMePhe(2-F) = C[C@](N)(Cc1ccccc1F)C(=O)O; γGlu = O=C(O)[C@H](CCC(=O)[*:2])N[*:1]; αMe4Pal = C[C@](N)(Cc1ccncc1)C(=O)O; αMeY = C[C@](N)(Cc1ccc(O)cc1)C(=O)O; 4Pal = N[C@@H](Cc1ccncc1)C(=O)O; αMeL = CC(C)C[C@](C)(N)C(=O)O; αMeS = C[C@](N)(CO)C(=O)O; Orn = NCCC[C@H](N)C(=O)O; AEEA = NCCOCCOCC(=O)O; Aib = CC(C)(N)C(=O)O

Columns and labels:
Format in all cases: cell-based
human GcgR = human GcgR (Homo sapiens, UniProt P47871); assay: Functional cAMP activity in the presence of 1% HSA; conditions: read-out: cAMP Rel EC50, hGcgR
human GcgR, sequence (P47871 26-477): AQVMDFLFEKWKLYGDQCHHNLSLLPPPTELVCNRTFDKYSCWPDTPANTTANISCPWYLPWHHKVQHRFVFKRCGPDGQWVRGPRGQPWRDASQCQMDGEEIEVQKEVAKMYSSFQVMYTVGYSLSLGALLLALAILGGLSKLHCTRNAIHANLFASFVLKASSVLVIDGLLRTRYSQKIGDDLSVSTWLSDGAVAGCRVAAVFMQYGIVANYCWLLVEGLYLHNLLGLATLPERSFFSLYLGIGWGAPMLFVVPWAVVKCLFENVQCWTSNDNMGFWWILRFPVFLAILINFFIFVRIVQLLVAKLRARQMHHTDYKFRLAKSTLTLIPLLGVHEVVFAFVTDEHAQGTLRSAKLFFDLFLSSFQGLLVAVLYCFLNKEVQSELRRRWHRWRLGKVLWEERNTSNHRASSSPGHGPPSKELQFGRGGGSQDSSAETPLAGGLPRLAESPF

hGLP-1R [1] = target: T1, hGLP-1R (Homo sapiens, UniProt P43220); assay: Functional cAMP activation in the presence of 0.1% casein (no HSA); conditions: read-out: Relative cAMP EC50, hGLP-1R;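 note: intracellular cAMP rise after 30 min at 37 °C read by HTRF, normalized between buffer only (0%) and maximal control ligand (100%), four-parameter variable-slope fit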
T1 sequence (P43220 24-463): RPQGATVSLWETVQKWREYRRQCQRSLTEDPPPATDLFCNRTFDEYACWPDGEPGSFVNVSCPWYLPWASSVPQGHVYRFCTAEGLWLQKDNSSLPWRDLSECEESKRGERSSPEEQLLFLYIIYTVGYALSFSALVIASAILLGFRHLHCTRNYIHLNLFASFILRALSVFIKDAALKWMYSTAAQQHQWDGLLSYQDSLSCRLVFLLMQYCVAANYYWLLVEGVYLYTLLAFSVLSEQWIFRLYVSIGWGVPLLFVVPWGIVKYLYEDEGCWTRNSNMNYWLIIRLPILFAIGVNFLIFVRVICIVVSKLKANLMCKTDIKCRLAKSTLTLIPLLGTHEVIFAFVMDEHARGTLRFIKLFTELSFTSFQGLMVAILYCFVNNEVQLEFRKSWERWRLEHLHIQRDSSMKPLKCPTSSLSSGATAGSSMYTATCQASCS

hGIPR [2] = target: T2, hGIPR (Homo sapiens, UniProt P48546); assay: Functional cAMP activity in the presence of 1% HSA; conditions: read-out: cAMP Rel EC50, hGIPR
T2 sequence (P48546 22-466): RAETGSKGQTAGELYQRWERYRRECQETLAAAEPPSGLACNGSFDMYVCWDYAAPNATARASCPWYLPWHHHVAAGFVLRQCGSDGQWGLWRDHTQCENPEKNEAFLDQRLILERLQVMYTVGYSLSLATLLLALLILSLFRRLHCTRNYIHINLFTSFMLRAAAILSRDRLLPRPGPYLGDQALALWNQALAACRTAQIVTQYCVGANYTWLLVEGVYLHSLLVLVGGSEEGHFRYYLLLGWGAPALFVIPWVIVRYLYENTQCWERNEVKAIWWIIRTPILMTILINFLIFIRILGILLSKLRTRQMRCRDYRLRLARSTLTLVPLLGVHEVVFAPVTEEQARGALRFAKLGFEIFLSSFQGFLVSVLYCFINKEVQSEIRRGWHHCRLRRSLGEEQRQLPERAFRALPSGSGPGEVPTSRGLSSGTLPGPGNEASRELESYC

hGIPR [3] = target: T2, hGIPR; assay: Functional cAMP activation in the presence of 0.1% casein (no HSA); conditions: read-out: Relative cAMP EC50, hGIPR;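 for Relative cAMP EC50, hGIPR: intracellular cAMP rise after 30 min at 37 °C read by HTRF against a standard curve, scaled between buffer alone (0%) and top control ligand concentration (100%), four-parameter fit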;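 for Relative cAMP EC50, hGcgR: intracellular cAMP rise after 30 min at 37 °C, read by HTRF against a cAMP standard curve, scaled from buffer only (0%) to maximal control ligand response (100%)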
hGcgR = hGcgR (Homo sapiens, UniProt P47871); assay: as above; conditions: read-out: Relative cAMP EC50, hGcgR;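 note: intracellular cAMP rise after 30 min at 37 °C, read by HTRF against a cAMP standard curve, scaled from buffer only (0%) to maximal control ligand response (100%)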
hGcgR, sequence (P47871 26-477): as the sequence (P47871 26-477) above

hGLP-1R [4] = target: T1, hGLP-1R; assay: Functional cAMP activity in the presence of 1% HSA; conditions: read-out: cAMP Rel EC50, hGLP-1R
[5] = in the presence of 0.1% casein (no HSA), geometric mean
[6] = 0.1% casein, no HSA, geometric mean

Substance	EC50 (human GcgR)	EC50 (hGLP-1R [1]; [5])	EC50 (hGIPR [2])	EC50 (hGIPR [3]; [5])	EC50 (hGcgR; [5])	EC50 (hGLP-1R [4])	EC50 (hGLP-1R [1])	EC50 (hGIPR [3])	EC50 (hGcgR)	EC50 (hGLP-1R [1]; [6])	EC50 (hGIPR [3]; [6])	EC50 (hGcgR; [6])
H-Y[Aib]QGTFTSD[4Pal]SQ[αMeL]LDKK([Glu-Glu-γGlu-C18 diacid])AQ[αMe4Pal]AFIEYLIAGGPSSGAPPPSGE-NH2 [Example 1087]	2460 nM	2.63 nM	23.3 nM	0.207 nM	15.4 nM	439 nM	–	–	–	–	–	–
H-Y[Aib]QGT[αMePhe(2-F)]TSD[4Pal][αMeS]I[αMeL]LD[Orn]K([AEEA-γGlu-C18 diacid])AQ[αMe4Pal]EFI[dE][αMeY]LIEGGPSSGAPPPSGE-NH2 [Example 1140]	228 nM	0.323 nM	0.869 nM	0.00821 nM	1.56 nM	39.2 nM	–	–	–	–	–	–
H-Y[Aib]QGTFTSD[4Pal]S[Orn][αMeL]LD[Orn]K([γGlu-γGlu-C18 diacid])AQ[αMe4Pal]AFIEYLIE[Aib]GPSSGAPPPSGS-NH2 [Example 939]	423 nM	2.75 nM	14.1 nM	0.143 nM	2.41 nM	287 nM	–	–	–	–	–	–
Y[Aib]QGTFTSD[4Pal]SQ[αMeL]LD[Orn]K([AEEA-γGlu-C18 diacid])AQ[αMe4Pal]QFIE[αMeY]LIE[Aib]GPSSGEPPPSGSEE-NH2 [Example 1098]	994 nM	1.22 nM	31.2 nM	0.201 nM	6.2 nM	184 nM	–	–	–	–	–	–
H-Y[Aib]QGTFTSDFS[Orn][αMeL]LDKK([AEEA-γGlu-C18 diacid])AQ[αMe4Pal]EFIEYLIE[Aib]GPSSGAPPPSGS-NH2 [Example 879]	329 nM	4 nM	20.1 nM	0.169 nM	2.16 nM	591 nM	–	–	–	–	–	–
H-Y[Aib]QGTFTSD[4Pal]S[Orn][αMeL]LDKK([AEEA-γGlu-γGlu-C18 diacid])AQ[αMe4Pal]AFIE[αMe4Pal]LIE[Aib]GPSSGEPPPSGS-NH2 [Example 987]	267 nM	6.33 nM	11.7 nM	0.194 nM	3.62 nM	515 nM	–	–	–	–	–	–
H-Y[Aib]QGTFTSD[4Pal]S[Orn][αMeL]LDKK([γGlu-γGlu-C18 diacid])AQ[αMe4Pal]AFIE[αMe4Pal]LIEGGPSSGAPPPSGS-NH2 [Example 952]	266 nM	4.85 nM	16.6 nM	0.166 nM	2.4 nM	439 nM	–	–	–	–	–	–
H-Y[Aib]QGTFTSD[4Pal]SQ[αMeL]LD[Orn]K([Glu-γGlu-C18 diacid])AQ[αMe4Pal]AFIQ[αMeY]LIEGGPSSGAPPPSGSEEE-NH2 [Example 1077]	3160 nM	1.48 nM	27.8 nM	0.23 nM	18.8 nM	408 nM	–	–	–	–	–	–
H-Y[Aib]QGT[αMePhe(2-F)]TSD[4Pal]SILLDKK([AEEA-γGlu-C18 diacid])AQ[Aib]AFIEYLEEGGPSSGAPPPSGTGE-NH2 [Example 662]	561 nM	–	4.69 nM	–	–	84.5 nM	0.946 nM	0.0704 nM	4.81 nM	–	–	–
H-Y[Aib]QGTFTSD[4Pal]SQ[αMeL]LDKK([γGlu-γGlu-C18 diacid])AQ[αMe4Pal]AFIE[αMe4Pal]LIE[Aib]GPSSGEPPPSGE-NH2 [Example 1123]	441 nM	4.47 nM	3.89 nM	0.101 nM	5.53 nM	191 nM	–	–	–	–	–	–
H-Y[Aib]QGT[αMePhe(2-F)]TSD[4Pal]SILLDKK([γGlu-γGlu-C18 diacid])AQ[Aib]AFIEYLEEGGPSSGAPPPSGAGE-NH2 [Example 620]	665 nM	–	5.96 nM	–	–	90.7 nM	0.981 nM	0.0706 nM	8.26 nM	–	–	–
Y[Aib]QGTFTSD[4Pal][αMeS]Q[αMeL]LD[Orn]K([dE-γGlu-C18 diacid])AQ[αMe4Pal]QFIQ[αMeY]LIEGGPSSGEPPPSGGGE-NH2 [Example 1188]	130 nM	1.01 nM	7.02 nM	0.0914 nM	1.16 nM	77.1 nM	–	–	–	–	–	–
H-Y[Aib]QGT[αMePhe(2-F)]TSD[4Pal][αMeS]I[αMeL]LD[Orn]K([AEEA-γGlu-C18 diacid])AQ[αMe4Pal]EFI[dE][αMeY]LIEGGPSSGAPPPSGSEE-NH2 [Example 713]	180 nM	–	0.879 nM	–	–	37.7 nM	0.331 nM	0.00928 nM	1.71 nM	–	–	–
Y[Aib]QGTFTSDYSI[αMeL]LDKQAAK([AEEA-AEEA-γGlu-C20 diacid])QFVEWLLAGGPSSGEPPPGEG-NH2 [Example 320]	1170 nM	2.58 nM	55.3 nM	0.274 nM	6.87 nM	328 nM	–	–	–	–	–	–
H-Y[Aib]QGTFTSD[4Pal]SK[αMeL]LDKK([AEEA-γGlu-C18 diacid])AQ[Aib]AFIEYLIE[Aib]GPSSGAPPPSGSE-NH2 [Example 901]	1150 nM	1.26 nM	34 nM	0.17 nM	9.09 nM	193 nM	–	–	–	–	–	–
H-Y[Aib]QGT[αMePhe(2-F)]TSD[4Pal]SILLDKK([γGlu-γGlu-C18 diacid])AQ[Aib]AFIE[αMeY]LEEGGPSSGAPPPSGGGE-NH2 [Example 668]	203 nM	–	1.69 nM	–	–	27.1 nM	0.325 nM	0.0198 nM	2.03 nM	–	–	–
H-Y[Aib]QGT[αMePhe(2-F)]TSD[4Pal][αMeS]I[αMeL]LD[Orn]K([AEEA-γGlu-C18 diacid])AQ[αMe4Pal]EFI[dE][αMeY]LIEGGPPS[Aib][Orn]PPP[Orn]GE-NH2 [Example 1195]	242 nM	–	0.637 nM	–	–	44.2 nM	–	–	–	0.367 nM	0.00708 nM	1.74 nM
H-Y[Aib]QGT[αMePhe(2-F)]TSD[4Pal][αMeS]I[αMeL]LD[Orn]K([γGlu-γGlu-C18 diacid])AQ[αMe4Pal]EFI[dE][αMeY]LIEGGPSSGAPPPSGSE-NH2 [Example 717]	130 nM	–	0.561 nM	–	–	21.4 nM	0.283 nM	0.00721 nM	1.14 nM	–	–	–
H-Y[Aib]QGTFTSD[Phe(4-CN)]S[Orn][αMeL]LDKK([AEEA-γGlu-C18 diacid])AQ[Aib]AFIEYLLE[Aib]GPSSGAPPPSGS-NH2 [Example 191]	344 nM	2.48 nM	47.4 nM	0.422 nM	2.11 nM	230 nM	–	–	–	–	–	–
Y[Aib]QGTFTSD[4Pal]SQ[αMeL]LDKK([dE-γGlu-C18 diacid])AQ[αMe4Pal]AFIEYLIE[Aib]GPSSGAPPPSGSE-NH2 [Example 924]	910 nM	3.12 nM	15.7 nM	0.0798 nM	6.05 nM	402 nM	–	–	–	–	–	–
